Assay results from patent US20020137929A1, “1 - (3-heterocyclylphenyl) isothiourea, -isourea, -guanidine and -amidine herbicidal agents” (Intellectual Property Department, BASF Aktiengesellschaft, priority 1998, published 2002).

Assays:
[1] = test system: ECHORC (Watergrass (Calif.)); experiment: Preemergence weed control under flooded paddy conditions; type: in vivo, Echinochloa oryzoides; conditions: rated 3-4 weeks after treatment
Outline: (§1)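 Seeds or propagules sown in top 0.5 cm of silt loam soil, flooded 1.5 to 3 cm above surface throughout. Compound in 50/50 v/v aqueous/acetone pipetted into flood water at about 0.0313 to 0.500 kg/ha. Visual 0-9 rating versus control after three to four weeks in greenhouse.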

[2] = test system: CYPIR (Rice Flatsedge); experiment: as above; type: in vivo, Cyperus iria; conditions: rated 3-4 weeks after treatment
Outline: as §1

[3] = test system: AMBEL (Ragweed, Common); experiment: Preemergence herbicidal evaluation; type: in vivo, Ambrosia artemisifolia; conditions: rated 4-5 weeks after treatment
Outline: (§2)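 Greenhouse preemergence test: seed-soil mix sown on ~1 inch soil; aqueous acetone spray at equivalent of ~0.0156–0.500 kg/ha; greenhouse-held and watered; scored 0–9 visually at 4–5 weeks.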

[4] = test system: ORYSAT (Rice, Tebonnet); experiment: Preemergence herbicidal evaluation; type: in vivo, Oryza sativa, (L.) Tebonnet; conditions: rated 4-5 weeks after treatment
Outline: as §2

[5] = test system: CASOB (Sicklepod); experiment: Postemergence herbicidal evaluation; type: in vivo, Cassia obtusifolia; conditions: postemergence
Outline: (§3)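 Visual 0–9 rating versus control (stand, vigor, malformation, size, chlorosis, overall appearance), taken four to five weeks post-spray. Two-week-old seedlings received roughly 0.0156–0.500 kg/ha active in acetone/water (50/50) with 0.5% TWEEN 20 via nozzle at 40 psi.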

[6] = test system: GALAP (Galium); experiment: Postemergence herbicidal evaluation; type: in vivo, Galium aparine; conditions: postemergence
Outline: as §3

[7] = test system: CHEAL (Lambsquarters, Common); experiment: Preemergence herbicidal evaluation; type: in vivo, Chenopodium album; conditions: rated 4-5 weeks after treatment
Outline: as §2

[8] = test system: TRZAWR (Wheat, Winter, cv Riband); experiment: Preemergence herbicidal evaluation; type: in vivo, Triticum aestivum; conditions: rated 4-5 weeks after treatment
Outline: as §2

[9] = test system: ZEAMX (Corn, Field); experiment: Postemergence herbicidal evaluation; type: in vivo, Zea mays; conditions: postemergence
Outline: as §3

[10] = test system: IPOHE (Morningglory, Ivyleaf); experiment: Preemergence herbicidal evaluation; type: in vivo, Ipomoea hederacea; conditions: rated 4-5 weeks after treatment
Outline: as §2

[11] = test system: ZEAMX (Corn, Field); experiment: Preemergence herbicidal evaluation; type: in vivo, Zea mays; conditions: rated 4-5 weeks after treatment
Outline: as §2

[12] = test system: CYPSE (Flatsedge); experiment: Preemergence weed control under flooded paddy conditions; type: in vivo, Cyperus serotinus; conditions: rated 3-4 weeks after treatment
Outline: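 Silt loam, seeds in top 0.5 cm; flood held 1.5-3 cm; test cpd as acetone/water 50/50 into flood water, ~0.0313-0.500 kg/ha a.i.; greenhouse 3-4 wk; visual 0-9 score vs control.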

[13] = rate 0.1250 kg/ha, rating scale 0-9
[14] = rate 0.2500 kg/ha, rating scale 0-9

Q: How did the “herbicidal effect rating, ECHORC” value ([1]; 0.0313 kg/ha) turn out when `COC(=O)CSCCN1C(=O)CSC1=Nc1cc(-n2c(=O)cc(C(F)(F)F)n(C)c2=O)c(F)cc1Cl` [Compound 158, Methyl {{2-{2-{{2-chloro-5-[3,6-dihydro-3-methyl-2,6-dioxo-4-(trifluoromethyl)-1(2H)-pyrimidinyl]-4-fluorophenyl}imino}-4-oxo-3-thiazolidinyl}ethyl}-thio}acetate] was run?
A: 9.0

Q: And the “herbicidal effect rating, ECHORC” value ([1]; 0.0625 kg/ha)?
A: 9.0

Q: And the “herbicidal effect rating, ECHORC” value ([1]; 0.1250 kg/ha)?
A: 9.0

Q: And the “herbicidal effect rating, ECHORC” value ([1]; 0.2500 kg/ha)?
A: 9.0

Q: And the “herbicidal effect rating, CYPIR” value ([2]; 0.0313 kg/ha)?
A: 9.0

Q: And the “herbicidal effect rating, CYPIR” value ([2]; 0.0625 kg/ha)?
A: 9.0

Q: And the “herbicidal effect rating, CYPIR” value ([2]; 0.1250 kg/ha)?
A: 9.0

Q: What about the “herbicidal effect rating, CYPIR” value ([2]; 0.2500 kg/ha) of the same molecule?
A: 9.0

Q: And the “Preemergence herbicidal rating AMBEL” value ([3]; 0.0156 kg/ha)?
A: 1.0

Q: What about the “Preemergence herbicidal rating AMBEL” value ([3]; 0.0313 kg/ha) of the same molecule?
A: 3.0

Q: And the “Preemergence herbicidal rating AMBEL” value ([3]; 0.0625 kg/ha)?
A: 7.0

Q: And the “Preemergence herbicidal rating AMBEL” value [3, 13]?
A: 9.0

Q: What about the “Preemergence herbicidal rating AMBEL” value [3, 14] of the same molecule?
A: 9.0

Q: And the “Preemergence herbicidal rating ORYSAT” value ([4]; 0.0156 kg/ha)?
A: 3.0

Q: What about the “Preemergence herbicidal rating ORYSAT” value ([4]; 0.0313 kg/ha) of the same molecule?
A: 4.0

Q: What about the “Preemergence herbicidal rating ORYSAT” value ([4]; 0.0625 kg/ha) of the same molecule?
A: 7.0

Q: What about the “Preemergence herbicidal rating ORYSAT” value [4, 13] of the same molecule?
A: 7.0

Q: What about the “Preemergence herbicidal rating ORYSAT” value [4, 14] of the same molecule?
A: 8.0

Q: And the “herbicidal rating CASOB” value ([5]; rate 0.0156 kg/ha)?
A: 4.0

Q: And the “herbicidal rating CASOB” value ([5]; rate 0.0313 kg/ha)?
A: 4.0

Q: What about the “herbicidal rating CASOB” value ([5]; rate 0.0625 kg/ha) of the same molecule?
A: 9.0

Q: And the “herbicidal rating GALAP” value ([6]; rate 0.0156 kg/ha)?
A: 0.0

Q: And the “herbicidal rating GALAP” value ([6]; rate 0.0313 kg/ha)?
A: 2.0

Q: And the “herbicidal rating GALAP” value ([6]; rate 0.0625 kg/ha)?
A: 3.0

Q: And the “Preemergence herbicidal rating CHEAL” value ([7]; 0.0156 kg/ha)?
A: 9.0

Q: What about the “Preemergence herbicidal rating CHEAL” value ([7]; 0.0313 kg/ha) of the same molecule?
A: 9.0

Q: And the “Preemergence herbicidal rating CHEAL” value ([7]; 0.0625 kg/ha)?
A: 9.0

Q: And the “Preemergence herbicidal rating CHEAL” value [7, 13]?
A: 9.0

Q: And the “Preemergence herbicidal rating CHEAL” value [7, 14]?
A: 9.0

Q: And the “Preemergence herbicidal rating TRZAWR” value ([8]; 0.0156 kg/ha)?
A: 1.0

Q: What about the “Preemergence herbicidal rating TRZAWR” value ([8]; 0.0313 kg/ha) of the same molecule?
A: 4.0

Q: What about the “Preemergence herbicidal rating TRZAWR” value ([8]; 0.0625 kg/ha) of the same molecule?
A: 5.0

Q: What about the “Preemergence herbicidal rating TRZAWR” value [8, 13] of the same molecule?
A: 7.0

Q: And the “Preemergence herbicidal rating TRZAWR” value [8, 14]?
A: 7.0

Q: And the “herbicidal rating ZEAMX” value ([9]; rate 0.0156 kg/ha)?
A: 4.0

Q: And the “herbicidal rating ZEAMX” value ([9]; rate 0.0313 kg/ha)?
A: 4.5

Q: And the “herbicidal rating ZEAMX” value ([9]; rate 0.0625 kg/ha)?
A: 5.5

Q: And the “Preemergence herbicidal rating IPOHE” value ([10]; 0.0156 kg/ha)?
A: 1.0

Q: And the “Preemergence herbicidal rating IPOHE” value ([10]; 0.0313 kg/ha)?
A: 4.0

Q: And the “Preemergence herbicidal rating IPOHE” value ([10]; 0.0625 kg/ha)?
A: 7.0

Q: What about the “Preemergence herbicidal rating IPOHE” value [10, 13] of the same molecule?
A: 9.0

Q: And the “Preemergence herbicidal rating IPOHE” value [10, 14]?
A: 9.0

Q: What about the “Preemergence herbicidal rating ZEAMX” value ([11]; 0.0156 kg/ha) of the same molecule?
A: 5.0

Q: And the “Preemergence herbicidal rating ZEAMX” value ([11]; 0.0313 kg/ha)?
A: 7.0

Q: And the “Preemergence herbicidal rating ZEAMX” value ([11]; 0.0625 kg/ha)?
A: 8.0

Q: What about the “Preemergence herbicidal rating ZEAMX” value [11, 13] of the same molecule?
A: 9.0

Q: And the “Preemergence herbicidal rating ZEAMX” value [11, 14]?
A: 9.0

Q: What about the “herbicidal effect rating, CYPSE” value ([12]; 0.0313 kg/ha) of the same molecule?
A: 5.0

Q: And the “herbicidal effect rating, CYPSE” value ([12]; 0.0625 kg/ha)?
A: 9.0

Q: What about the “herbicidal effect rating, CYPSE” value ([12]; 0.1250 kg/ha) of the same molecule?
A: 9.0

Q: And the “herbicidal effect rating, CYPSE” value ([12]; 0.2500 kg/ha)?
A: 9.0

Q: Which results are given for `C=CCN1C(=O)C(CC(=O)NO)SC1=Nc1cc(-n2c(=O)cc(C(F)(F)F)n(C)c2=O)c(F)cc1Cl` (centres unmarked) [Compound 161, 3-Allyl-2-{{2-chloro-5-[3,6-dihydro-3-methyl-2,6-dioxo-4-(trifluoromethyl)-1(2H)-pyrimidinyl]-4-fluorophenyl}imino}-4-oxo-5-thiazolidineacetohydroxamic acid]?
A: herbicidal effect rating, ECHORC ([1]; 0.0313 kg/ha): 0.0; herbicidal effect rating, ECHORC ([1]; 0.0625 kg/ha): 0.0; herbicidal effect rating, ECHORC ([1]; 0.1250 kg/ha): 2.0; herbicidal effect rating, ECHORC ([1]; 0.2500 kg/ha): 4.0; herbicidal effect rating, CYPIR ([2]; 0.0313 kg/ha): 3.0; herbicidal effect rating, CYPIR ([2]; 0.0625 kg/ha): 4.0; herbicidal effect rating, CYPIR ([2]; 0.1250 kg/ha): 5.0; herbicidal effect rating, CYPIR ([2]; 0.2500 kg/ha): 6.0; Preemergence herbicidal rating AMBEL ([3]; 0.0156 kg/ha): 0.0; Preemergence herbicidal rating AMBEL ([3]; 0.0313 kg/ha): 3.0; Preemergence herbicidal rating AMBEL ([3]; 0.0625 kg/ha): 5.0; Preemergence herbicidal rating AMBEL ([3]; 0.1250 kg/ha): 9.0; Preemergence herbicidal rating AMBEL ([3]; 0.2500 kg/ha): 9.0; Preemergence herbicidal rating AMBEL ([3]; 0.5000 kg/ha): 9.0; Preemergence herbicidal rating ORYSAT ([4]; 0.0156 kg/ha): 0.0; Preemergence herbicidal rating ORYSAT ([4]; 0.0313 kg/ha): 1.0; Preemergence herbicidal rating ORYSAT ([4]; 0.0625 kg/ha): 7.0; Preemergence herbicidal rating ORYSAT ([4]; 0.1250 kg/ha): 7.0; Preemergence herbicidal rating ORYSAT ([4]; 0.2500 kg/ha): 9.0; Preemergence herbicidal rating ORYSAT ([4]; 0.5000 kg/ha): 9.0; herbicidal rating CASOB ([5]; rate 0.0156 kg/ha): 0.0; herbicidal rating CASOB ([5]; rate 0.0313 kg/ha): 1.0; herbicidal rating CASOB ([5]; rate 0.0625 kg/ha): 1.0; herbicidal rating CASOB ([5]; rate 0.1250 kg/ha): 3.0; herbicidal rating GALAP ([6]; rate 0.0156 kg/ha): 0.0; herbicidal rating GALAP ([6]; rate 0.0313 kg/ha): 1.0; herbicidal rating GALAP ([6]; rate 0.0625 kg/ha): 2.0; herbicidal rating GALAP ([6]; rate 0.1250 kg/ha): 4.0; Preemergence herbicidal rating CHEAL ([7]; 0.0156 kg/ha): 6.0; Preemergence herbicidal rating CHEAL ([7]; 0.0313 kg/ha): 7.0; Preemergence herbicidal rating CHEAL ([7]; 0.0625 kg/ha): 9.0; Preemergence herbicidal rating CHEAL ([7]; 0.1250 kg/ha): 9.0; Preemergence herbicidal rating CHEAL ([7]; 0.2500 kg/ha): 9.0; Preemergence herbicidal rating CHEAL ([7]; 0.5000 kg/ha): 9.0; Preemergence herbicidal rating TRZAWR ([8]; 0.0156 kg/ha): 0.0; Preemergence herbicidal rating TRZAWR ([8]; 0.0313 kg/ha): 0.0; Preemergence herbicidal rating TRZAWR ([8]; 0.0625 kg/ha): 1.0; Preemergence herbicidal rating TRZAWR ([8]; 0.1250 kg/ha): 4.0; Preemergence herbicidal rating TRZAWR ([8]; 0.2500 kg/ha): 7.0; Preemergence herbicidal rating TRZAWR ([8]; 0.5000 kg/ha): 9.0; herbicidal rating ZEAMX ([9]; rate 0.0156 kg/ha): 4.5; herbicidal rating ZEAMX ([9]; rate 0.0313 kg/ha): 6.5; herbicidal rating ZEAMX ([9]; rate 0.0625 kg/ha): 7.0; herbicidal rating ZEAMX ([9]; rate 0.1250 kg/ha): 7.5; Preemergence herbicidal rating IPOHE ([10]; 0.0313 kg/ha): 2.0; Preemergence herbicidal rating IPOHE ([10]; 0.0625 kg/ha): 7.0; Preemergence herbicidal rating IPOHE ([10]; 0.1250 kg/ha): 9.0; Preemergence herbicidal rating IPOHE ([10]; 0.2500 kg/ha): 9.0; Preemergence herbicidal rating IPOHE ([10]; 0.5000 kg/ha): 9.0; Preemergence herbicidal rating ZEAMX ([11]; 0.0156 kg/ha): 0.0; Preemergence herbicidal rating ZEAMX ([11]; 0.0313 kg/ha): 0.0; Preemergence herbicidal rating ZEAMX ([11]; 0.0625 kg/ha): 1.0; Preemergence herbicidal rating ZEAMX ([11]; 0.1250 kg/ha): 5.0; Preemergence herbicidal rating ZEAMX ([11]; 0.2500 kg/ha): 6.0; Preemergence herbicidal rating ZEAMX ([11]; 0.5000 kg/ha): 9.0; herbicidal effect rating, CYPSE ([12]; 0.0313 kg/ha): 0.0; herbicidal effect rating, CYPSE ([12]; 0.0625 kg/ha): 0.0; herbicidal effect rating, CYPSE ([12]; 0.1250 kg/ha): 0.0; herbicidal effect rating, CYPSE ([12]; 0.2500 kg/ha): 3.0
